In patent US5620675A, “Radioactive peptides” (Diatech, Inc., priority 1993, dated 1997):
Starred links: 1 amine or outer side, 2 acyl side, 3 side chain; linkers in the order of their positions; H or OH if unused. Non-standard residues stand in square brackets, D forms with d. Residues, ends and D or L forms follow the SMILES beside them. *: point of attachment. DTPA = O=C(O)CN(CCN(CC(=O)O)CC(=O)O)CCN(CC(=O)O)CC(=O)*; Phe(4-Cl) = N[C@@H](Cc1ccc(Cl)cc1)C(=O)O; X4 = CC(C)(S)CNCCN(CCCCC(=O)*)CC(C)(C)S; 2Nal = N[C@@H](Cc1ccc2ccccc2c1)C(=O)O; d2Nal = N[C@H](Cc1ccc2ccccc2c1)C(=O)O; εLys = N[C@@H](CCCCN[*:1])C(=O)[*:2]; Acm = CC(=O)NC*

biological target: T1, somatostatin receptor (Rattus norvegicus, UniProt P30680); test: Inhibition of binding of [125I-Tyr11]somatostatin-14 to AR42J rat pancreatic tumor cell membranes; details: inhibition constant; displacement of 0.5 nM [125I-Tyr11]somatostatin-14 from AR42J cell membranes, 25 min at 30° C; free peptides and [Re=O]-complexed peptides
T1 construct: endogenous in cells; host or cells: AR42J rat pancreatic tumor cell line (membrane preparation)
Procedure: Inhibition of Binding of [^125 I-Tyr^11 ]somatostatin-14 to AR42J Rat Pancreatic Tumor Cell Membranes
The rat pancreatic tumor cell line AR42J which expresses the somatostatin receptor was cultured in Dulbecco's minimal essential media (DMEM) supplemented with 10% fetal bovine serum (FBS) and 8 mM glutamine in a humdified 5% CO2 atmosphere at 37° C. in T-flasks. Harvested cells were homogenized in cold 50 mM Tris-HCl buffer (pH 7.4) and the homogenate then centrifuged at 39,000 g for 10 min at 4° C. Pellets were washed once with buffer and then resuspended in an ice-cold solution of 10 mM Tris-HCl (pH 7.4). Equal aliquots of this cell membrane preparation were incubated with [^125 I-Tyr^11 ]somatostatin-14 (at a final concentration of 0.5nM and 750,000 cpm/mL, at a specific activity of 2000 Ci/mmol, Amersham, Arlington Heights, Ill.) and peptide at a final concentration of from 10^-11 M to 10^-6 M in a solution of 50 mM HEPES (pH 7.4) containing 1% bovine serum albumin (BSA), 5 mM MgCl2, Trasylol (200,000 International Units), bacitracin (0.02 mg/mL) and phenylmethylsulfonylfluoride (0.02 mg/mL) for 25 min at 30° C. Using a filtration manifold, this mixture was filtered through a polyethyleneimine-washed GC/F filter (Whatman, Maidstone, England), and the residue remaining on the filter wastled thrice with 5 mL cold HEPES buffer. The filter and a sample of the filter washings were then counted in a gamma counter. To assess non-specific binding, the assay was performed in the presence of unlabeled somatostatin-14 at 200 nM. Data analysis including Hill plots of the data provided inhibition constants (see Bylund & Yamamura, "Methods of receptor binding", in Methods in Neurotransmitter Receptor Analysis, Yamamura et al., eds., Raven Press: New York, 1990).

T1 sequence (P30680 whole entry): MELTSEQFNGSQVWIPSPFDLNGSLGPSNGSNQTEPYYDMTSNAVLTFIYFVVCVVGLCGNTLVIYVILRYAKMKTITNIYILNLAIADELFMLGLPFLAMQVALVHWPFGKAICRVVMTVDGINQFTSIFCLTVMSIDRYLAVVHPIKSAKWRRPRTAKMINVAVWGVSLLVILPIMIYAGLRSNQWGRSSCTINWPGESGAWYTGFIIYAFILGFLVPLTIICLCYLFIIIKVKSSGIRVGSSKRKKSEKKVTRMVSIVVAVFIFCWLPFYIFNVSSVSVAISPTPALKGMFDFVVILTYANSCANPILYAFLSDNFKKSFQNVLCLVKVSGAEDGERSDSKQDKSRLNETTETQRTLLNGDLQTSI

| Compound | Ki |
| --- | --- |
| CC(=O)N[C@@H](CS)C(=O)NCC(=O)N[C@@H](CS)C(=O)N[C@H](Cc1ccccc1)C(=O)N[C@@H](Cc1ccc(Cl)cc1)C(=O)N[C@@H](Cc1ccc(O)cc1)C(=O)N[C@H](Cc1c[nH]c2ccccc12)C(=O)N[C@@H](CCCCN)C(=O)N[C@H](C(=O)N[C@@H](Cc1ccccc1)C(=O)N[C@H](C(N)=O)[C@@H](C)O)[C@@H](C)O [Ac.CGCFD.Cpa.YWD KTFT.amide] (Ac-CGC[dF][Phe(4-Cl)]Y[dW]KTFT-NH2) | 4.4 nM |
| CC(=O)N[C@H](Cc1ccccc1)C(=O)N[C@@H](Cc1ccccc1)C(=O)N[C@@H](Cc1ccc(O)cc1)C(=O)N[C@H](Cc1c[nH]c2ccccc12)C(=O)N[C@@H](CCCCN)C(=O)N[C@H](C(=O)N[C@@H](Cc1ccccc1)C(=O)N[C@H](C(=O)NCC(=O)NCC(=O)NCC(=O)NCCCC[C@H](N)C(=O)NCC(=O)N[C@@H](CS)C(N)=O)[C@@H](C)O)[C@@H](C)O [Ac.FD FYWD KTFTGGG(ε-K)GC.amide] (Ac-[dF]FY[dW]KTFTGGG[εLys]GC-NH2) | 8.2 nM |
| C[C@@H](O)[C@H](NC(=O)[C@H](CCCCN)NC(=O)[C@@H](Cc1c[nH]c2ccccc12)NC(=O)[C@H](Cc1ccc(O)cc1)NC(=O)[C@H](Cc1ccc(Cl)cc1)NC(=O)[C@H](N)Cc1ccccc1)C(=O)N[C@@H](CS)C(=O)N[C@@H](Cc1ccc2ccccc2c1)C(N)=O [FD.Cpa.YWD KTC.Nal.amide] (H-[dF][Phe(4-Cl)]Y[dW]KTC[2Nal]-NH2) | 8.2 nM |
| CC(=O)NCSC[C@H](NC(=O)CNC(=O)[C@H](CSCNC(C)=O)NC(=O)CNC(=O)CNC(=O)CNC(=O)[C@@H](NC(=O)[C@H](Cc1ccccc1)NC(=O)[C@@H](NC(=O)[C@H](CCCCN)NC(=O)[C@@H](Cc1c[nH]c2ccccc12)NC(=O)[C@H](Cc1ccc(O)cc1)NC(=O)[C@H](Cc1ccc(Cl)cc1)NC(=O)[C@H](N)Cc1ccccc1)[C@@H](C)O)[C@@H](C)O)C(N)=O [FD.Cpa.YWD KTFT.GGGCAcm GCAcm.amide] (H-[dF][Phe(4-Cl)]Y[dW]KTFTGGGC(Acm)GC(Acm)-NH2) | 2.4 nM |
| CSC[C@H](NC(=O)[C@@H](NC(=O)[C@H](CCCCN)NC(=O)[C@@H](Cc1c[nH]c2ccccc12)NC(=O)[C@H](Cc1ccc(O)cc1)NC(=O)[C@H](CSC)NC(=O)[C@@H](Cc1ccc2ccccc2c1)NC(=O)[C@@H](N)CCCCNC(=O)CCCCN(CCNCC(C)(C)S)CC(C)(C)S)C(C)C)C(=O)N[C@H](C(N)=O)[C@@H](C)O [K.[BAT].D-Nal.CMe YWD KVCMe T.amide, K(BAT).D-Nal.CMe YWD KVCMe T.amide] (H-K(X4)[d2Nal]C(Me)Y[dW]KVC(Me)T-NH2; N-terminus assumed) | 9.9 nM |
| C[C@@H](O)[C@H](NC(=O)[C@H](Cc1ccccc1)NC(=O)[C@@H](NC(=O)[C@H](CCCCN)NC(=O)[C@@H](Cc1c[nH]c2ccccc12)NC(=O)[C@H](Cc1ccc(O)cc1)NC(=O)[C@H](Cc1ccccc1)NC(=O)[C@@H](Cc1ccccc1)NC(=O)[C@H](CS)NC(=O)CNC(=O)[C@@H](N)CCCCNC(=O)CN(CCN(CCN(CC(=O)O)CC(=O)O)CC(=O)O)CC(=O)O)[C@@H](C)O)C(N)=O [[DTPA].(ε-K)GCFD.FYWD KTFT.amide] (H-K(DTPA)GC[dF]FY[dW]KTFT-NH2) | 3.3 nM |
| C[C@@H](O)[C@H](NC(=O)[C@H](Cc1ccccc1)NC(=O)[C@@H](NC(=O)[C@H](CCCCN)NC(=O)[C@@H](Cc1c[nH]c2ccccc12)NC(=O)[C@H](Cc1ccc(O)cc1)NC(=O)[C@H](Cc1ccc(Cl)cc1)NC(=O)[C@@H](Cc1ccc2ccccc2c1)NC(=O)CN(CCN(CCN(CC(=O)O)CC(=O)O)CC(=O)O)CC(=O)O)[C@@H](C)O)C(=O)NCCCC[C@H](N)C(=O)NCC(=O)N[C@@H](CS)C(=O)N[C@@H](CCCCN)C(=O)N[C@@H](CCCCN)C(N)=O [[DTPA].D-Nal.Cpa.YWD KTFT(ε-K)GCKK.amide] ({DTPA}-[d2Nal][Phe(4-Cl)]Y[dW]KTFT[εLys]GCKK-NH2) | 1.3 nM |
| AKCGGGFD FYWD KTFT.amide | 2.9 nM |
| Ac.CGCFD.Cpa.YWD KTFT.amide | 4.1 nM |
| Ac.FD FYWD KTFGGG(ε-K)KC.amide | 6.1 nM |
| Ac.FD FYWD KTFT(ε-K)GC.amide | 1.5 nM |
| Ac.FD FYWD KTFTGGG(ε-K)GC.amide | 8.1 nM |
| FD.Cpa.YWD K.Abu.Nal.T(ε-K)GC.amide | 3.3 nM |
| [DTPA].Aca.FD.Cpa.YWD KTFT(ε-K)GC.amide | 8.2 nM |
| maGGGFD.Cpa.YWD KTFT.amide | 0.97 nM |

Now those with a lower Ki, led by results:

| Ki | Compound |
| --- | --- |
| 0.73 nM | CC(=O)NCSC[C@H](NC(C)=O)C(=O)NCC(=O)N[C@@H](CSCNC(C)=O)C(=O)N[C@H](Cc1ccccc1)C(=O)N[C@@H](Cc1ccc(Cl)cc1)C(=O)N[C@@H](Cc1ccc(O)cc1)C(=O)N[C@H](Cc1c[nH]c2ccccc12)C(=O)N[C@@H](CCCCN)C(=O)N[C@H](C(=O)N[C@@H](Cc1ccccc1)C(=O)N[C@H](C(N)=O)[C@@H](C)O)[C@@H](C)O [Ac.CAcm GCAcm FD.CPa.YWD KTFT.amide, Ac.CAcm GCAcm FD.Cpa.YWD KTFT.amide] (Ac-C(Acm)GC(Acm)[dF][Phe(4-Cl)]Y[dW]KTFT-NH2) |
| 0.85 nM | CC(=O)NCSC[C@H](NC(=O)CNC(=O)[C@H](CSCNC(C)=O)NC(=O)[C@@H](NC(=O)[C@H](Cc1ccccc1)NC(=O)[C@@H](NC(=O)[C@H](CCCCN)NC(=O)[C@@H](Cc1c[nH]c2ccccc12)NC(=O)[C@H](Cc1ccc(O)cc1)NC(=O)[C@H](Cc1ccc(Cl)cc1)NC(=O)[C@H](N)Cc1ccccc1)[C@@H](C)O)[C@@H](C)O)C(N)=O [FD.CPa.YWD KTFTCAcm GCAcm.amide, FD.Cpa.YWD KTFTCAcm GCAcm.amide] (H-[dF][Phe(4-Cl)]Y[dW]KTFTC(Acm)GC(Acm)-NH2) |
| 0.76 nM | AKCGGGFD.Cpa.YWD KTFT.amide |
| 0.37 nM | FD.CPa.YWD KTFTCGC.amide (not fully specified; Re=O complex; FD.CPa.YWD prefix; C-terminal amide) |
| 0.36 nM | FD.Cpa.YWD KTFT(ε-K)GC.amide |
| 0.007 nM | [DTPA].D-Nal.Cpa.YWD KTFT(ε-K)GC.amide |
| 0.027 nM | [DTPA].FD.Cpa.YWD KTFT(ε-K)GC.amide |
